From patent US9029404B2, “Apoptosis-inducing agents for the treatment of cancer and immune and autoimmune diseases” (AbbVie Inc., priority 2008, dated 2015) come the findings set out here.

The structures appear in SMILES notation.

The target in this experiment is GST-Bcl-2 (Homo sapiens, UniProt P10415). Nature of the experiment: Time Resolved-Fluorescence Resonance Energy Transfer (TR-FRET) Bcl-2 binding assay. Conditions: competition with F-Bak peptide probe (100 nM); GST-Bcl-2 1 nM; Tb-anti-GST 1 nM; 3 hours at room temperature; Wang's equation. How it is done: Determination of the utility of compounds having Formula (I) as binders to and inhibitors of anti-apoptotic Bcl-2 proteins was performed using the Time Resolved-Fluorescence Resonance Energy Transfer (TR-FRET) Assay. Tb-anti-GST antibody was purchased from Invitrogen (Catalog No. PV4216).
Representative compounds were serially diluted in dimethyl sulfoxide (DMSO) starting at 50 μM (2× starting concentration; 10% DMSO) and 10 μL were transferred into a 384-well plate. The samples are then mixed on a shaker for 1 minute and incubated for an additional 3 hours at room temperature. For each assay, the probe/antibody and protein/probe/antibody were included on each assay plate as negative and positive controls, respectively. Fluorescence was measured on the Envision (Perkin Elmer) using a 340/35 nm excitation filter and 520/525 (F-Bak peptide) and 495/510 nm (Tb-labeled anti-Histidine antibody) emission filters.
The samples were then mixed on a shaker for 1 minute and incubated for an additional 3 hours at room temperature. For each assay, the probe/antibody and protein/probe/antibody were included on each assay plate as negative and positive controls, respectively. Fluorescence was measured on the Envision (Perkin Elmer) using a 340/35 nm excitation filter and 520/525 (F-Bak peptide) and 495/510 nm (Tb-labeled anti-Histidine antibody) emission filters.
The inhibition constant (Ki) is the dissociation constant of an enzyme-inhibitor complex or a protein/small molecule complex, wherein the small molecule is inhibiting binding of one protein to another protein. So a large Ki value indicates a low binding affinity and a small Ki value indicates a high binding affinity.
(TR-FRET usually uses a lanthanide donor and a delayed reading to cut background.)

Sequence of GST-Bcl-2 (P10415 whole entry): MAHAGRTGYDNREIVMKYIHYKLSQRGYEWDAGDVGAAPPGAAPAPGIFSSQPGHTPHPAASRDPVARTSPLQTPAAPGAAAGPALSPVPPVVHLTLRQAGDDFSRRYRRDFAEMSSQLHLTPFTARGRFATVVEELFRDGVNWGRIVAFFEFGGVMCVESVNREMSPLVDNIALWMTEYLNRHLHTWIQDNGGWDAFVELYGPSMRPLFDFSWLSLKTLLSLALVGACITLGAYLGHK

`Cn1c(=O)[nH]c2cccc(Oc3cc(N4CCN(CC5=C(c6ccc(Cl)cc6)CC(C)(C)CC5)CC4)ccc3C(=O)NS(=O)(=O)c3ccc(NCC4CN(C5CC5)CCO4)c([N+](=O)[O-])c3)c21` (stereo not shown) [Example 439, 4-(4-{[2-(4-chlorophenyl)-4,4-dimethylcyclohex-1-en-1-yl]methyl}piperazin-1-yl)-N-[(4-{[(4-cyclopropylmorpholin-2-yl)methyl]amino}-3-nitrophenyl)sulfonyl]-2-[(3-methyl-2-oxo-2,3-dihydro-1H-benzimidazol-4-yl)oxy]benzamide] returned a Ki of less than 0.01 nM.

With `CC1(C)CCC(CN2CCN(c3ccc(C(=O)NS(=O)(=O)c4ccc(N[C@@H]5CCN(C6COC6)C5)c([N+](=O)[O-])c4)c(Oc4cnc(N)c(Cl)c4)c3)CC2)=C(c2ccc(Cl)cc2)C1` [Example 455, 2-[(6-amino-5-chloropyridin-3-yl)oxy]-4-(4-{[2-(4-chlorophenyl)-4,4-dimethylcyclohex-1-en-1-yl]methyl}piperazin-1-yl)-N-[(3-nitro-4-{[(3R)-1-(oxetan-3-yl)pyrrolidin-3-yl]amino}phenyl)sulfonyl]benzamide], the Ki was 0.011 nM.

For `CC1(C)CCC(CN2CCN(c3ccc(C(=O)NS(=O)(=O)c4cnc(OCC5(F)CCOCC5)c(Cl)c4)c(Oc4cc(F)cc5[nH]ncc45)c3)CC2)=C(c2ccc(Cl)cc2)C1` [Example 415, N-({5-chloro-6-[(4-fluorotetrahydro-2H-pyran-4-yl)methoxy]pyridin-3-yl}sulfonyl)-4-(4-{[2-(4-chlorophenyl)-4,4-dimethylcyclohex-1-en-1-yl]methyl}piperazin-1-yl)-2-[(6-fluoro-1H-indazol-4-yl)oxy]benzamide], the Ki came out at 0.013 nM.

`Cn1c(=O)[nH]c2cccc(Oc3cc(N4CCN(CC5=C(c6ccc(Cl)cc6)CC(C)(C)CC5)CC4)ccc3C(=O)NS(=O)(=O)c3ccc(OCC4(F)CCOCC4)c([N+](=O)[O-])c3)c21` [Example 426, 4-(4-{[2-(4-chlorophenyl)-4,4-dimethylcyclohex-1-en-1-yl]methyl}piperazin-1-yl)-N-({4-[(4-fluorotetrahydro-2H-pyran-4-yl)methoxy]-3-nitrophenyl}sulfonyl)-2-[(3-methyl-2-oxo-2,3-dihydro-1H-benzimidazol-4-yl)oxy]benzamide] returned a Ki of less than 0.01 nM.

Take `CC1(C)CCC(CN2CCN(c3ccc(C(=O)NS(=O)(=O)c4cnc(OCC5CCC(C)(O)CC5)c(Cl)c4)c(Oc4cc(F)cc5[nH]ncc45)c3)CC2)=C(c2ccc(Cl)cc2)C1` (stereo not drawn) [Example 424, N-({5-chloro-6-[(trans-4-hydroxy-4-methylcyclohexyl)methoxy]pyridin-3-yl}sulfonyl)-4-(4-{[2-(4-chlorophenyl)-4,4-dimethylcyclohex-1-en-1-yl]methyl}piperazin-1-yl)-2-[(6-fluoro-1H-indazol-4-yl)oxy]benzamide]: the Ki is less than 0.01 nM.

Consider `CC1(C)CCC(CN2CCN(c3ccc(C(=O)NS(=O)(=O)c4ccc(NCC5CCC(C)(O)CC5)c([N+](=O)[O-])c4)c(Oc4cnc(N)c(Cl)c4)c3)CC2)=C(c2ccc(Cl)cc2)C1` (stereo not drawn) [Example 437, 2-[(6-amino-5-chloropyridin-3-yl)oxy]-4-(4-{[2-(4-chlorophenyl)-4,4-dimethylcyclohex-1-en-1-yl]methyl}piperazin-1-yl)-N-[(4-{[(cis-4-hydroxy-4-methylcyclohexyl)methyl]amino}-3-nitrophenyl)sulfonyl]benzamide], for which the Ki is less than 0.01 nM.

With `CN1CCC(C)(Nc2ccc(S(=O)(=O)NC(=O)c3ccc(N4CCN(CC5=C(c6ccc(Cl)cc6)CC(C)(C)CC5)CC4)cc3Oc3ccccc3Cl)cc2[N+](=O)[O-])CC1` [Example 168, 2-(2-chlorophenoxy)-4-(4-{[2-(4-chlorophenyl)-4,4-dimethylcyclohex-1-en-1-yl]methyl}piperazin-1-yl)-N-({4-[(1,4-dimethylpiperidin-4-yl)amino]-3-nitrophenyl}sulfonyl)benzamide], the Ki was found to be 28.3 nM.

What is called Ki is the dissociation constant of the complex between target and ligand, obtained from inhibition or displacement. A lower Ki goes with higher affinity.
